Columns and labels:
Test in all cases: Displacement of [3H]AMPA binding on membranes of transfected HEK293 cells
Conditions in all cases: mean ± S.E.; for Hill slope: displacement of [3H]AMPA binding, Prism software
GluR4 (4-19) = target: T1, GluR4 (4-19) (Homo sapiens, UniProt P48058)
T1 construct: expressed in transfected cells; host or cells: HEK293, plasmid pHGluR4/pcDNA3
Description: (§1) In order to examine the pharmacological identity of the stably expressed recombinant receptors, competitive binding studies were performed.
(§2) The binding studies were carried out as outlined previously (Keinänen et al., 1990; Fletcher et al., 1995). […] The pellets were resuspended in 50 mM Tris-HCl (pH 7.5) and repeated the homogenization and centrifugation. […] The cell membranes were incubated with the radioligand for 60 minutes on ice, and subsequently collected by rapid filtration through GF/C filters. […] The filters were washed rapidly with cold assay buffer. The radioactivity retained in the filters was measured by liquid scintillation counting.

GluR3 (5-42) = target: T2, GluR3 (5-42) (Homo sapiens, UniProt P42263)
T2 construct: expressed in transfected cells; host or cells: HEK293, plasmid pHGluR3/pcDNA3
T2 sequence (P42263 29-894 isoform P42263-2 limits assumed): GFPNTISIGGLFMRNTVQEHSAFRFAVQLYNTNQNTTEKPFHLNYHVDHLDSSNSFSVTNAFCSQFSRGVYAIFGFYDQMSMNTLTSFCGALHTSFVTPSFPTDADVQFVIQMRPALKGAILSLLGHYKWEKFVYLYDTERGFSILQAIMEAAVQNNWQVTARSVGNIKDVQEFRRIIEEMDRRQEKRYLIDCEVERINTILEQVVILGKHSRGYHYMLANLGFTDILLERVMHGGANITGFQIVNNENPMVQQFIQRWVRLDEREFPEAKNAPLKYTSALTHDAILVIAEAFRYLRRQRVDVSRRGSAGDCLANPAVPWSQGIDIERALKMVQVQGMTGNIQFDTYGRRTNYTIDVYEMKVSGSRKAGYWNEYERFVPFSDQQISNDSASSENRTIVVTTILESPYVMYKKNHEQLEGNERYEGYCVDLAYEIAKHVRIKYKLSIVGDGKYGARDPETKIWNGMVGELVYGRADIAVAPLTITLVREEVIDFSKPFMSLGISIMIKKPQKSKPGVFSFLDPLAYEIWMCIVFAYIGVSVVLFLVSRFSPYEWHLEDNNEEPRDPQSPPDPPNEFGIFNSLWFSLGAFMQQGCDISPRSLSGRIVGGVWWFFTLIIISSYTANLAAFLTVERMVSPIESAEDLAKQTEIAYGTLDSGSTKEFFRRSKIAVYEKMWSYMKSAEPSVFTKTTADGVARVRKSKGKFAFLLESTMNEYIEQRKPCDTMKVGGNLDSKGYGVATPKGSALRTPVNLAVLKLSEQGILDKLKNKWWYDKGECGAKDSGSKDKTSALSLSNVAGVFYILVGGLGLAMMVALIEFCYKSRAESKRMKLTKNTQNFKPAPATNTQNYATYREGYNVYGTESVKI
Description: as §1, §2

GluR1 (1-24) = target: T3, GluR1 (1-24) (Homo sapiens, UniProt P42261)
T3 construct: expressed in transfected cells; host or cells: HEK293, plasmid pHGluR1/pcDNA3
T3 sequence (P42261 19-906 isoform P42261-2 limits assumed): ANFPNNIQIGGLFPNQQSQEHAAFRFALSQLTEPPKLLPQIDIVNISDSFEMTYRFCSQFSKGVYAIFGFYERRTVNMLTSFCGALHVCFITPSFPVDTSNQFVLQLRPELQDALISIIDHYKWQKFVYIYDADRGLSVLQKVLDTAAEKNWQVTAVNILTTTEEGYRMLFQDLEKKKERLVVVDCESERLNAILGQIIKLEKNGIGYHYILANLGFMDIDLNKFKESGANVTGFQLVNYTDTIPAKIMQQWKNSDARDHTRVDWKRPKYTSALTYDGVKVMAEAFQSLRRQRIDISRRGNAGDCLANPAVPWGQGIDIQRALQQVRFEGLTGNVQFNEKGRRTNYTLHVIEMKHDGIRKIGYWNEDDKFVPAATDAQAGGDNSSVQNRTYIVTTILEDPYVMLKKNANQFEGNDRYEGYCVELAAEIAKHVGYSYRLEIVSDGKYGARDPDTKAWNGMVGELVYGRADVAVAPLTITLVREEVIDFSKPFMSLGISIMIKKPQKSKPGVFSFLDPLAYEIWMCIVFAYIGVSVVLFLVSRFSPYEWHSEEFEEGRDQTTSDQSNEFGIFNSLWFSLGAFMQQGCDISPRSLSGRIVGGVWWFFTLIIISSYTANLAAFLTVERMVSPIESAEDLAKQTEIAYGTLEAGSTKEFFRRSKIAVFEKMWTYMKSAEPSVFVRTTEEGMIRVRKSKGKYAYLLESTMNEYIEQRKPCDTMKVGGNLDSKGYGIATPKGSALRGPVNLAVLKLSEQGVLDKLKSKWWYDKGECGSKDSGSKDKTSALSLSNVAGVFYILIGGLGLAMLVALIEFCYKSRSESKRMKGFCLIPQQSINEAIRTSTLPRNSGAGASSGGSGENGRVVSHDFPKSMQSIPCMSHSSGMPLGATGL
Description: as §1, §2

[1] = displacement of [3H]AMPA, Cheng-Prusoff equation, 0.1 M KSCN, on ice

T1 sequence (P48058 21-902): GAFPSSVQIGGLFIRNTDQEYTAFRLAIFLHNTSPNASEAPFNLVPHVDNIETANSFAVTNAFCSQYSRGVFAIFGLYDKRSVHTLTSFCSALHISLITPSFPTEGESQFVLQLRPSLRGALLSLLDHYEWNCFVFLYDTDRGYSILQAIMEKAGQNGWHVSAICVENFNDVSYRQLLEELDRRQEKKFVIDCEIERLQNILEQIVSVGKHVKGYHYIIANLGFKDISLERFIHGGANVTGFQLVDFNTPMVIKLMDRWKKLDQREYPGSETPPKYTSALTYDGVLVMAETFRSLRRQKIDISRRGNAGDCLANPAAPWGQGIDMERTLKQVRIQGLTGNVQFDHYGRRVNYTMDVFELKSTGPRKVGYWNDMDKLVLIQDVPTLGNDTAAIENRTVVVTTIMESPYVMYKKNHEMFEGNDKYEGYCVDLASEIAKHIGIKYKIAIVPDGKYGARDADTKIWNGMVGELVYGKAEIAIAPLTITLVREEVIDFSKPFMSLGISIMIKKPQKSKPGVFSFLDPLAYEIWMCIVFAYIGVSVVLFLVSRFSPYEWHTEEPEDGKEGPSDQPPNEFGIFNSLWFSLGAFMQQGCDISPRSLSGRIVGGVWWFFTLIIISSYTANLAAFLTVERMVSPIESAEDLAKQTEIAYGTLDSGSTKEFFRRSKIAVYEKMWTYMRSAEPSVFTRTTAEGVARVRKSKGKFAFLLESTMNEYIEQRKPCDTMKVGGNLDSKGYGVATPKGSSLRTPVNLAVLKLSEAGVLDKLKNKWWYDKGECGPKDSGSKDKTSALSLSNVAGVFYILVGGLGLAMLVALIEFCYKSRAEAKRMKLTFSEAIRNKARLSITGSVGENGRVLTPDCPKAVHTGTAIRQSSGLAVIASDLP

Compound | Hill slope (GluR4 (4-19)) | Hill slope (GluR3 (5-42)) | Hill slope (GluR1 (1-24)) | Ki (GluR4 (4-19); [1]) | Ki (GluR3 (5-42); [1]) | Ki (GluR1 (1-24); [1])
N#Cc1cc2[nH]c(=O)c(=O)[nH]c2cc1[N+](=O)[O-] [CNQX] | -0.86 ± 0.06 | -0.83 ± 0.06 | -1.00 ± 0.06 |  |  | 
CN1Cc2c(S(=O)(=O)N(C)C)cc3c(c2C1)NC(=O)C3=NO [NS257] | -0.83 ± 0.03 | -1.01 ± 0.22 | -0.85 ± 0.08 | 1050 ± 78 nM | 967 ± 124 nM | 1970 ± 148 nM
